Here are results for 14 molecules from patent US20240287097A1, “COMPOUNDS AND METHODS FOR MODULATING SPLICING” (REMIX THERAPEUTICS INC., priority 2020, published 2024).

As a reminder, the IC50 is the concentration that gives 50% inhibition. Usually AC50 stands for the midpoint of the concentration-response curve, whichever way the signal moves.

Type in all cases: cell-based
For one experiment, the system named is HTT CJ mRNA transcript. Briefly: Gene panel canonical junction qPCR assay, HTT. As to conditions: 50% response in CJ decrease, read-out: HTT IC50 (decrease in CJ mRNA levels). The protocol:
(§1) Compounds described herein were used to modulate RNA transcript abundance in cells. The expression of a target mRNA was measured by detecting the formation of an exon-exon junction in the canonical transcript (CJ). A compound mediated exon-inclusion event was detected by observing an increase in formation of a new junction with an alternative exon (AJ). Real-time qPCR assays were used to detect these splicing switches and interrogate the potency of various compounds towards different target genes. A high-throughput real time quantitative PCR (RT-qPCR) assay was developed to measure these two isoforms of the mRNA (CJ and AJ) for an exemplary gene, HTT, together with a control housekeeping gene, GAPDH or GUSB or PPIA, used for normalization. Briefly, the A673 or K562 cell line was treated with various compounds described herein (e.g., compounds of Formula (I)). After treatment, the levels of the HTT mRNA targets were determined from each sample of cell lysate by cDNA synthesis followed by qPCR.
(§2) The A673 cell line was cultured in DMEM with 10% FBS. Cells were diluted with full growth media and plated in a 96-well plate (15,000 cells in 100 ul media per well). The plate was incubated at 37° C. with 5% CO2 for 24 hours to allow cells to adhere. An 11-point 3-fold serial dilution of the compounds was made in DMSO then diluted in media in an intermediate plate. Compounds were transferred from the intermediate plate to the cell plate with the top dose at a final concentration of 10 uM in the well. Final DMSO concentration was kept at or below 0.25%. The cell plate was returned to the incubator at 37° C. with 5% CO2 for an additional 24 hours.
(§3) The K562 cell line was cultured in IMDM with 10% FBS. For K562, cells were diluted with full growth media and plated in either a 96-well plate (50,000 cells in 50 uL media per well) or a 384-well plate (8,000-40,000 cells in 45 uL media per well). An 11-point 3-fold serial dilution of the compounds were made in DMSO then diluted in media in an intermediate plate. Compound was transferred from the intermediate plate to the cell plate with the top dose at a final concentration of 10 uM in the well. Final DMSO concentration was kept at or below 0.25%. Final volume was 100 uL for 96-well plate and 50 uL for 384-well plate. The cell plate was then placed in an incubator at 37° C. with 5% CO2 for 24 hours.
(§4) The data analysis was performed by first determining the ΔCt vs the housekeeper gene. This ΔCt was then normalized against the DMSO control (ΔΔCt) and converted to RQ (relative quantification) using the 2^(−ΔΔCt) equation. The RQ were then converted to a percentage response by arbitrarily setting an assay window of 3.5 ΔCt for HTT-CJ and an assay window of 9 ΔCt for HTT-AJ. […] The percentage response was then fitted to the 4 parametric logistic equation to evaluate the concentration dependence of compound treatment. The increase in AJ mRNA is reported as AC50 (compound concentration having 50% response in AJ increase) while the decrease in CJ mRNA levels is reported as IC50 (compound concentration having 50% response in CJ decrease).
(§5) Additional studies were carried out for a larger panel of genes using the protocol provided above. The junction between flanking upstream and downstream exons was used to design canonical junction qPCR assays. At least one of the forward primer, reverse primer or the CY5-labeled 5′ nuclease probe (with 3′ quencher such as ZEN/Iowa Black FQ) was designed to overlap with the exon junction to capture the CJ mRNA transcript. BLAST was used to confirm the specificity of the probeset and parameters such as melting temperature, GC content, amplicon size, and primer dimer formation are considered during their design. Data for the decrease in CJ mRNA levels for three exemplary genes (HTT, SMN2, and Target C) analyzed in this panel are reported as IC50 (compound concentration having 50% response in CJ decrease).
For orientation: In qPCR the cycle at which signal appears reflects the starting amount.

Experiment [1] relates to HTT mRNA, canonical junction (CJ). Briefly: Splicing RT-qPCR assay, HTT canonical junction (CJ) mRNA decrease. As to conditions: A673 or K562 cells, 24 hours compound treatment, 50% response in CJ decrease. The protocol: as §1
(§6) • Cells-to-CT 1-step kit: ThermoFisher A25602, Cells-to-CT lysis reagent: ThermoFisher 4391851C, TagMan™ Fast Virus 1-Step Master Mix: ThermoFisher 4444436 • GAPDH: VIC-PL, ThermoFisher 4326317E (Assay: Hs99999905 m1)—used for K562/suspension cell lines • GUSB: VIC-PL, ThermoFisher 4326320E (Assay: Hs99999908 m1)—used for K562/suspension cell lines • PPIA: VIC-PL, ThermoFisher 4326316E (Assay: Hs99999904 m1)—used for A673/adherent cell lines
as §2, §3
(§7) The cells were then gently washed with 50 uL-100 uL cold PBS before proceeding to addition of lysis buffer. 30 uL-50 uL of room temperature lysis buffer with DNAse I (and optionally RNAsin) was added to each well. Cells were shaken/mixed thoroughly at room temperature for 5-10 minutes for lysis to take place and then 3 uL-5 uL of room temperature stop solution was added and wells were shaken/mixed again. After 2-5 minutes, the cell lysate plate was transferred to ice for RT-qPCR reaction setup. The lysates could also be frozen at ˜80° C. for later use.
(§8) In some cases, a direct lysis buffer was used. An appropriate volume of 3×lysis buffer (10 mM Tris, 150 mM NaCl, 1.5%-2.5% Igepal and 0.1-1 U/uL RNAsin, pH 7.4) was directly added to either K562 or A673 cells in media and mixed by pipetting 3 times. The plates were then incubated at room temperature with shaking/rocking for 20-50 minutes to allow for lysis to take place. After this time, the cell lysate plate was transferred to ice to set up for the RT-qPCR reactions. The lysates could also be frozen at −80° C. for later use. […]

Another experiment concerns SMN2 CJ mRNA transcript. Briefly: Gene panel canonical junction qPCR assay, SMN2. As to conditions: 50% response in CJ decrease, read-out: SMN2 IC50 (decrease in CJ mRNA levels). The protocol:
as §1, §2, §3, §4, §5

Experiment [2] has as its system Target C CJ mRNA transcript. In words: Gene panel canonical junction qPCR assay, Target C. To be noted: 50% response in CJ decrease, read-out: Target C IC50 (decrease in CJ mRNA levels). The protocol:
as §1, §2, §3, §4, §5

For experiment [3], the system named is HTT mRNA, alternative junction (AJ). Briefly: Splicing RT-qPCR assay, HTT alternative junction (AJ) mRNA increase. As to conditions: A673 or K562 cells, 24 hours compound treatment, 50% response in AJ increase. How it is done: as §1, §6, §2, §3, §7, §8

In the case of `Cc1cn2cc(-n3cnc4sc(N5CCN(C)CC5)nc4c3=O)cc(F)c2n1` [Compound 221, 6-(8-fluoro-2-methylimidazo[1,2-a]pyridin-6-yl)-2-(4-methylpiperazin-1-yl)thiazolo[5,4-d]pyrimidin-7(6H)-one], the IC50 (in the experiment on HTT CJ mRNA transcript; in the experiment on SMN2 CJ mRNA transcript; in experiment [2]) was greater than 10 µM in each case. In addition, the AC50 in experiment [1] and in experiment [3] was greater than 10 µM in each case.
As to `CN1CCC(Nc2nc3c(=O)n(-c4ccc5nn(C)cc5c4)cnc3s2)CC1` [Compound 189, 6-(2-methyl-2H-indazol-5-yl)-2-((1-methylpiperidin-4-yl)amino)thiazolo[5,4-d]pyrimidin-7(6H)-one], the concentration for half-maximal inhibition (IC50) (in the experiment with HTT CJ mRNA transcript; in the experiment with SMN2 CJ mRNA transcript; in experiment [2]) was greater than 10 µM in each case. The concentration at half-maximal activity (AC50) in experiment [1] and in experiment [3] was greater than 10 µM in each case.
For the molecule `CN1CC=C(c2nc3c(=O)n(-c4ccc5nn(C)cc5c4)cnc3s2)CC1` [Compound 188, 2-(1-methyl-1,2,3,6-tetrahydropyridin-4-yl)-6-(2-methyl-2H-indazol-5-yl)thiazolo[5,4-d]pyrimidin-7(6H)-one], the IC50 was greater than 10 µM in the experiment on HTT CJ mRNA transcript, greater than 10 µM in the experiment on SMN2 CJ mRNA transcript and 1 to 10 µM in experiment [2]. Further, the AC50 in experiment [1] and in experiment [3] was greater than 10 µM throughout.
Take `Cn1cc2cc(-n3cnc4sc(N5CCN(Cc6ccc(F)cc6)CC5)nc4c3=O)ccc2n1` [Compound 185, 2-(4-(4-fluorobenzyl)piperazin-1-yl)-6-(2-methyl-2H-indazol-5-yl)thiazolo[5,4-d]pyrimidin-7(6H)-one]: the IC50 in the experiment with HTT CJ mRNA transcript and in the experiment on SMN2 CJ mRNA transcript was greater than 10 µM in each case. Further, the AC50 in experiment [1] and in experiment [3] was greater than 10 µM throughout.
On to `CN1CCC(N(C)c2nc3c(=O)n(-c4ccc5nn(C)cc5c4)cnc3s2)CC1` [Compound 190, 2-(methyl(1-methylpiperidin-4-yl)amino)-6-(2-methyl-2H-indazol-5-yl)thiazolo[5,4-d]pyrimidin-7(6H)-one], for which the IC50 (in the experiment on HTT CJ mRNA transcript; in the experiment with SMN2 CJ mRNA transcript; in experiment [2]) was greater than 10 µM each time. Also, the AC50 in experiment [1] and in experiment [3] was greater than 10 µM in each case.
`CN1CCC(c2nc3c(=O)n(-c4ccc5nn(C)cc5c4)cnc3s2)CC1` [Compound 176, 6-(2-methyl-2H-indazol-5-yl)-2-(1-methylpiperidin-4-yl)thiazolo[5,4-d]pyrimidin-7(6H)-one]: the IC50 (with HTT CJ mRNA transcript; with SMN2 CJ mRNA transcript; in experiment [2]) was greater than 10 µM throughout. In addition, the AC50 in experiment [1] and in experiment [3] was greater than 10 µM each time.
For `Cc1cc(-c2nc3c(=O)n(C4CC(C)(C)N(C=O)C(C)(C)C4)cnc3s2)cc2cn(C)nc12` [Compound 187, 4-(2-(2,7-dimethyl-2H-indazol-5-yl)-7-oxothiazolo[5,4-d]pyrimidin-6(7H)-yl)-2,2,6,6-tetramethylpiperidine-1-carbaldehyde], the IC50 with HTT CJ mRNA transcript is 1 to 10 µM; in the experiment with SMN2 CJ mRNA transcript it was greater than 10 µM. For the same molecule, the AC50 in experiment [1] was 1 to 10 µM; in experiment [3] it was greater than 10 µM.
In the case of `Cc1cn2cc(-n3cnc4sc(N5CCN(C)CC5)nc4c3=O)cc(C(F)(F)F)c2n1` [Compound 224, 6-(2-methyl-8-(trifluoromethyl)imidazo[1,2-a]pyridin-6-yl)-2-(4-methylpiperazin-1-yl)thiazolo[5,4-d]pyrimidin-7(6H)-one], the AC50 in experiment [1] and in experiment [3] was greater than 10 µM throughout.
Consider `Cc1cn2cc(-n3cnc4sc(N5CCNCC5)nc4c3=O)cc(C(F)(F)F)c2n1` [Compound 223, 6-(2-methyl-8-(trifluoromethyl)imidazo[1,2-a]pyridin-6-yl)-2-(piperazin-1-yl)thiazolo[5,4-d]pyrimidin-7(6H)-one], for which the IC50 (in the experiment on HTT CJ mRNA transcript; in the experiment on SMN2 CJ mRNA transcript; in experiment [2]) was greater than 10 µM in each case. Moreover, the AC50 in experiment [1] and in experiment [3] was greater than 10 µM in each case.
With `Cc1cn2cc(-c3nc4c(=O)n(C5CCN(C)CC5)cnc4s3)cc(F)c2n1` [Compound 186, 2-(8-fluoro-2-methylimidazo[1,2-a]pyridin-6-yl)-6-(1-methylpiperidin-4-yl)thiazolo[5,4-d]pyrimidin-7(6H)-one], the 50% inhibitory concentration (IC50) in the experiment on HTT CJ mRNA transcript and with SMN2 CJ mRNA transcript was 1 to 10 µM each time. Besides, the AC50 in experiment [1] and in experiment [3] was 1 to 10 µM each time.
In the case of `Cc1cn2cc(-n3cnc4sc(N5CCNCC5)nc4c3=O)cc(F)c2n1` [Compound 220, 6-(8-fluoro-2-methylimidazo[1,2-a]pyridin-6-yl)-2-(piperazin-1-yl)thiazolo[5,4-d]pyrimidin-7(6H)-one], the 50% inhibitory concentration (IC50) with HTT CJ mRNA transcript was greater than 10 µM; with SMN2 CJ mRNA transcript it was greater than 10 µM; in experiment [2], 1 to 10 µM. For the same molecule, the half-maximal activity concentration (AC50) in experiment [1] and in experiment [3] was greater than 10 µM in each case.
Turning to `CN1CCN(c2nc3c(=O)n(-c4ccc5nn(C)cc5c4)cnc3s2)CC1` [Compound 181, 6-(2-methyl-2H-indazol-5-yl)-2-(4-methylpiperazin-1-yl)thiazolo[5,4-d]pyrimidin-7(6H)-one], the IC50 in the experiment on HTT CJ mRNA transcript and in the experiment on SMN2 CJ mRNA transcript was greater than 10 µM throughout. Besides, the AC50 in experiment [1] and in experiment [3] was greater than 10 µM in each case.
In the case of `Cc1cc(-c2nc3c(=O)n(C4CCN(C)CC4)cnc3s2)cc2cn(C)nc12` [Compound 179, 2-(2,7-dimethyl-2H-indazol-5-yl)-6-(1-methylpiperidin-4-yl)thiazolo[5,4-d]pyrimidin-7(6H)-one], the IC50 is greater than 10 µM with HTT CJ mRNA transcript and 0.1 to 1 µM in the experiment with SMN2 CJ mRNA transcript. Moreover, the concentration at half-maximal activity (AC50) in experiment [1] and in experiment [3] was greater than 10 µM throughout.
For `Cn1cc2cc(-n3cnc4sc(N5CCNCC5)nc4c3=O)ccc2n1` [Compound 219, 6-(2-methyl-2H-indazol-5-yl)-2-(piperazin-1-yl)thiazolo[5,4-d]pyrimidin-7(6H)-one], the IC50 (in the experiment with HTT CJ mRNA transcript; in the experiment on SMN2 CJ mRNA transcript; in experiment [2]) was greater than 10 µM throughout. The half-maximal activity concentration (AC50) in experiment [1] and in experiment [3] was greater than 10 µM in each case.
